Measurements from patent US8779158B2, “Trisubstituted pyrazoles as acetylcholine receptor modulators” (Janssen Pharmaceutica NV, priority 2008, dated 2014).

Target: T1, hα7-wt nAChR (Homo sapiens, UniProt P36544)
T1 construct: expressed in transfected cells
Test: Ca2+ flux imaging (FDSS) (Protocol B), potentiation of the choline response
Type: cell-based
Settings: Ca2+ assay as described in D.1; for EC50: "<5" = activity did not reach a top plateau at maximal concentration; for Emax / Emax at 30 µM: read-out: % Efficacy
Description: Ca^2+ Flux Imaging (FDSS) (Protocol B)
• Hanks buffered saline solution (HBSS, Invitrogen, Belgium), supplemented with 10 mM HEPES (Invitrogen, Belgium), CaCl2 to a final concentration of 5 mM, 0.1% Bovine serum albumin (Sigma-Aldrich NV, Belgium). b) Calcium-Sensitive Dye—Fluo-4AM • Fluo-4AM (Molecular Probes, USA) was dissolved in DMSO containing 10% Pluronic acid (Molecular Probes, USA) to give a stock solution which was diluted in assay buffer supplemented with 5 mM probenicid (Sigma, Aldrich NV, Belgium) to give a final concentration of 2 μM. c) 384-Well Plates • Black 384 well plate black/clear plates, PDL pre-coated (Corning, Incorporated, USA) d) Calcium Flux Measurement • A Functional drug screening system (FDSS, Hamamatsu) was used to measure intracellular free-calcium flux signals. Method
Monolayers of hα7-wt nAChR-expressing cells were grown in multi-well plates, in particular black-sided, transparent bottomed 384 well plates coated with poly-D-lysine for 24 hours prior to loading with a fluorescent calcium indicator, in a particular embodiment loading with fluo-4AM for up to 120 minutes.
PAM activity was detected in real time by applying the compounds to be tested to the loaded cells along with a α7 nicotinic receptor agonist during constant monitoring of cellular fluorescence in a FDSS. Compounds giving peak fluorescent responses greater than the response due to agonist alone, were considered to be α7 nAChR PAM's. In a particular embodiment, the α7 nicotinic receptor agonist was choline, a more particular embodiment choline applied at a sub-maximal concentration of 100 μM. In a further setting of the present invention the compounds to be tested were applied prior to the α7 nicotinic receptor agonist, in a particular embodiment up to 10 minutes prior to the agonist.
A control response to choline was calculated on each plate from the difference in peak in fluorescence in wells receiving either choline or assay buffer alone. Compounds of the present invention were tested at a concentration range from 0.01 μM to 30 μM. Compounds were considered to have an interesting activity when they potentiated the choline signal at least with 200% when tested at a concentration of 30 μM (the efficacy of 100 μM choline was defined as 100% in the absence of a PAM). An EC50 (or pEC50) was determined as a concentration relating to half the maximal effect, when a clear sigmoidal curve with top plateau was obtained.

T1 sequence (P36544 23-502): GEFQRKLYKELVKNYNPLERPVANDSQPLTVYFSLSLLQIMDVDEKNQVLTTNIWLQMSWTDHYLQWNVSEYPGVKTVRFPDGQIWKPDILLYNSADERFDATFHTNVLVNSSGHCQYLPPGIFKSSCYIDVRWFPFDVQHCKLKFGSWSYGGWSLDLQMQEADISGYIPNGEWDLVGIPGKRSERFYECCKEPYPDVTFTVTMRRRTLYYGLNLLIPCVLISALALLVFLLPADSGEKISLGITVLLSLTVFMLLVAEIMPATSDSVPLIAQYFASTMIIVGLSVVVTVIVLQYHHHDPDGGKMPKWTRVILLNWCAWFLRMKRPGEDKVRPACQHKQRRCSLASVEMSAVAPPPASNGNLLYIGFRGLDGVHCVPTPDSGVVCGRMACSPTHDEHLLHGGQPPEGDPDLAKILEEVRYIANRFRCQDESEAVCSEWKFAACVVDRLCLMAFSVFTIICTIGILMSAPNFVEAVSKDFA

Row | SMILES | EC50 | Emax | Emax at 30 µM
1 | CCNC(=O)Cn1nc(Nc2ccc(F)c(F)c2F)cc1-c1cc(C)nc(C)c1 [compound 148] | 468 nM | – | –
2 | COc1cc(Nc2cc(-c3cc(C)nc(C)c3)n(CC(=O)NC3CC3)n2)cc(C(F)(F)F)c1 [compound 138] | 617 nM | 686% | –
3 | Cc1ccnc(-c2cc(Nc3cc(F)cc(F)c3)nn2CCC(=O)N(C)C)c1 [compound 26] | 2750 nM | 800% | –
4 | CCNc1cc(-c2cc(Nc3ccc(F)c(C(F)(F)F)c3)nn2C[C@H](C)O)cc(C)n1 [compound 67] | 1380 nM | 800% | –
5 | CNC(=O)Cn1nc(Nc2cccc(OC(F)(F)F)c2)cc1-c1cc(C)nc(C)c1 [compound 129] | 933 nM | 726% | –
6 | CN(C)C(=O)CCn1nc(Nc2ccc(F)c(F)c2)cc1-c1ccc2c(c1)OCCO2 [compound 84] | 51.3 nM | – | –
7 | CNC(=O)Cn1nc(Nc2ccc3c(c2)OC(F)(F)O3)cc1-c1ccncc1C [compound 89] | > 10000 nM | – | –
8 | CCNC(=O)Cn1nc(Nc2ccc3c(c2)OC(F)(F)O3)cc1-c1ccc2c(c1)OCCO2 [compound 98] | 324 nM | – | –
9 | CC[C@H](O)Cn1nc(Nc2cc(OC)cc(C(F)(F)F)c2)cc1-c1cc(C)nc(C)c1 [compound 101] | 151 nM | – | –
10 | CCNC(=O)Cn1nc(Nc2cccc(C(F)(F)F)c2)cc1-c1cccnc1 [compound 18] | > 10000 nM | – | 592%
11 | CCNC(=O)Cn1nc(Nc2ccc(F)c(C(F)(F)F)c2)cc1-c1ccc2c(c1)OCCO2 [compound 81] | 214 nM | – | –
12 | CC[C@H](O)Cn1nc(Nc2cc(OC)cc(C(F)(F)F)c2)cc1-c1ccnc(C)c1Cl [compound 115] | 1260 nM | 516% | –
13 | Cc1cc(-c2cc(Nc3cccc(OC(F)(F)F)c3)nn2CC(=O)NC2CCC2)cc(C)n1 [compound 180] | 372 nM | 768% | –
14 | Cc1cc(-c2cc(Nc3ccc(F)c(C(F)(F)F)c3)nn2CC[C@H](C)O)ccn1 [compound 49] | 1820 nM | 500% | –
15 | Cc1cc(-c2cc(Nc3ccc(F)c(F)c3)nn2CC(=O)NC2CCC2)cc(C)n1 [compound 171] | 148 nM | 507% | –
16 | CNC(=O)Cn1nc(Nc2ccc(F)c(C(F)(F)F)c2)cc1-c1ccc2c(c1)OCCO2 [compound 75] | 219 nM | – | –
17 | Cc1ccnc(-c2cc(Nc3ccc(F)c(C(F)(F)F)c3)nn2C[C@H](C)O)c1 [compound 25] | 933 nM | 500% | –
18 | CNC(=O)Cn1nc(Nc2cc(F)c(F)c(F)c2)cc1-c1ccnc(C)c1 [compound 109] | 1780 nM | 559% | –
19 | CCNC(=O)Cn1nc(Nc2ccc(F)c(F)c2)cc1-c1cccnc1 [compound 16] | > 10000 nM | – | –
20 | CCNC(=O)Cn1nc(Nc2cccc(C(F)(F)F)c2)cc1-c1ccc2c(c1)OCCO2 [compound 79] | 219 nM | – | –
21 | CCNc1cc(-c2cc(Nc3ccc(F)c(F)c3)nn2C[C@H](C)O)cc(C)n1 [compound 66] | > 10000 nM | – | –

Row | SMILES | EC50 | Emax | Emax at 30 µM
22 | CCNC(=O)Cn1nc(Nc2cc(F)cc(Cl)c2)cc1-c1ccnc(C)c1 [compound 39] | 776 nM | – | –
23 | CCNC(=O)Cn1nc(Nc2cc(F)c(F)c(F)c2)cc1-c1cc(C)nc(C)c1 [compound 167] | 263 nM | 762% | –
24 | CCNC(=O)Cn1nc(Nc2cccc(OC(F)(F)F)c2)cc1-c1ccnc(C)c1 [compound 37] | 1000 nM | – | –
25 | CN(C)C(=O)CCn1nc(Nc2cccc(F)c2)cc1-c1ccc2c(c1)OCCO2 [compound 82] | 135 nM | – | –
26 | Cc1cc(-c2cc(Nc3cc(F)c(F)c(F)c3)nn2CC(=O)NC2CCC2)cc(C)n1 [compound 179] | 115 nM | 793% | –
27 | CCNc1cc(-c2cc(Nc3ccc(F)c(F)c3F)nn2C[C@H](C)O)ccn1 [compound 133] | 776 nM | 409% | –
28 | CNC(=O)Cn1nc(Nc2ccc(F)c(F)c2)cc1-c1ccnc(NC)c1 [compound 61] | > 10000 nM | – | –
29 | CCNC(=O)Cn1nc(Nc2cc(F)cc(C(F)(F)F)c2)cc1-c1ccncc1C [compound 31] | 2690 nM | – | –
30 | CC[C@H](O)Cn1nc(Nc2cc(F)cc(F)c2)cc1-c1ccnc(Cl)c1 [compound 47] | 437 nM | – | –
31 | CNC(=O)Cn1nc(Nc2ccc(F)c(F)c2F)cc1-c1cc(C)nc(C)c1 [compound 120] | 1150 nM | 969% | –
32 | CCNc1cc(-c2cc(Nc3cc(OC)cc(C(F)(F)F)c3)nn2C[C@H](C)O)ccn1 [compound 63] | 3980 nM | 700% | –
33 | Cc1cc(-c2cc(Nc3cccc(C(F)(F)F)c3)nn2CCC(=O)N(C)C)cc(C)n1 [compound 178] | 550 nM | 627% | –
34 | CCNC(=O)Cn1nc(Nc2ccc(F)c(F)c2)cc1-c1ccncc1 [compound 20] | > 10000 nM | – | –
35 | CNC(=O)Cn1nc(Nc2ccc(F)c(C(F)(F)F)c2)cc1-c1cc(C)nc(C)c1 [compound 114] | 1150 nM | – | –
36 | Cc1cc(-c2cc(Nc3ccc(F)c(F)c3F)nn2CC(=O)NC2CC2)cc(C)n1 [compound 156] | 380 nM | 975% | –
37 | Cc1cc(-c2cc(Nc3ccc(F)c(C(F)(F)F)c3)nn2C[C@H](C)O)cc(N(C)C)n1 [compound 69] | 794 nM | 400% | –
38 | Cc1cc(-c2cc(Nc3ccc(F)c(F)c3)nn2CCC(=O)N(C)C)cc(Cl)n1 [compound 60] | 501 nM | – | –
39 | CC[C@H](O)Cn1nc(Nc2cccc(C(F)(F)F)c2)cc1-c1ccnc(COC)c1 [compound 113] | 1320 nM | – | –
40 | Cc1cc(-c2cc(Nc3ccc(F)c(C(F)(F)F)c3)nn2CCC(=O)N(C)C)cc(C)n1 [compound 161] | 240 nM | 737% | –
41 | CNC(=O)Cn1nc(Nc2cc(OC)cc(C(F)(F)F)c2)cc1-c1cc(C)nc(C)c1 [compound 105] | 3160 nM | – | –
42 | CNC(=O)Cn1nc(Nc2cccc(OC(F)(F)F)c2)cc1-c1cccnc1 [compound 14] | 5130 nM | – | –

Row | SMILES | EC50 | Emax | Emax at 30 µM
43 | CNC(=O)Cn1nc(Nc2cc(F)cc(Cl)c2)cc1-c1ccnc(C)c1 [compound 33] | 1780 nM | – | –
44 | COc1cccc(-c2cc(Nc3ccc(F)c(F)c3)nn2CCC(=O)N(C)C)c1Cl [compound 11] | 145 nM | – | –
45 | CCNC(=O)Cn1nc(Nc2cccc(OC(F)(F)F)c2)cc1-c1cccnc1 [compound 17] | > 10000 nM | – | –
46 | CNC(=O)Cn1nc(Nc2cccc(C(F)(F)F)c2)cc1-c1cc(C)nc(C)c1 [compound 117] | 1480 nM | 835% | –
47 | CC[C@H](O)Cn1nc(Nc2ccc(F)c(C(F)(F)F)c2)cc1-c1ccc(C)nc1 [compound 29] | 1120 nM | 500% | –
48 | Cc1cc(-c2cc(Nc3cc(F)cc(Cl)c3)nn2C[C@H](C)O)ccn1 [compound 42] | 1120 nM | 200% | –
49 | CNC(=O)Cn1nc(Nc2cc(F)c(F)c(F)c2)cc1-c1cc(C)nc(C)c1 [compound 127] | 1020 nM | 616% | –
50 | Cc1cc(-c2cc(Nc3cccc(OC(F)(F)F)c3)nn2CC(=O)NC2CC2)cc(C)n1 [compound 147] | 603 nM | 643% | –
51 | Cc1cc(-c2cc(Nc3cc(F)c(F)c(F)c3)nn2C[C@H](C)O)ccn1 [compound 44] | 1230 nM | 400% | –
52 | COc1cc(Nc2cc(-c3ccnc(C)c3C)n(CCC(=O)N(C)C)n2)cc(C(F)(F)F)c1 [compound 52] | 912 nM | – | –
53 | CCNc1cc(-c2cc(Nc3cc(F)cc(C(F)(F)F)c3)nn2C[C@H](C)O)ccn1 [compound 64] | 1410 nM | 500% | –
54 | CCNC(=O)Cn1nc(Nc2cccc(OC(F)(F)F)c2)cc1-c1ccc2c(c1)OCCO2 [compound 80] | 204 nM | – | –
55 | CNC(=O)Cn1nc(Nc2cccc(C(F)(F)F)c2)cc1-c1cccnc1 [compound 13] | > 10000 nM | – | 967%
56 | Cc1cc(-c2cc(Nc3cccc(C(F)(F)F)c3)nn2CC(=O)NC2CCC2)cc(C)n1 [compound 144] | 437 nM | 444% | –
57 | Cc1cc(-c2cc(Nc3ccc(F)c(F)c3F)nn2CC(=O)NC2CC2)ccn1 [compound 116] | 1230 nM | 596% | –
58 | CN(C)C(=O)CCn1nc(Nc2ccc3c(c2)OC(F)(F)O3)cc1-c1ccncc1 [compound 88] | 309 nM | – | –
59 | CNC(=O)Cn1nc(Nc2cccc(Cl)c2F)cc1-c1cc(C)nc(C)c1 [compound 141] | 562 nM | 519% | –
60 | CNC(=O)Cn1nc(Nc2cc(F)cc(C(F)(F)F)c2)cc1-c1ccncc1C [compound 30] | > 10000 nM | – | –
61 | Cc1cc(-c2cc(Nc3ccc(F)c(C(F)(F)F)c3)nn2CC(=O)NC2CC2)cc(C)n1 [compound 159] | 457 nM | 842% | –
62 | CNC(=O)Cn1nc(Nc2cc(OC)cc(C(F)(F)F)c2)cc1-c1ccnc(C)c1C [compound 50] | 6170 nM | 496% | –
